From PubChem BioAssay (NCI)
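Step 1: Grow cells in 96-well plates. Step 2: Expose to compound for 48 hours at 5 concentrations. Step 3: Interpolate endpoints linearly; if unreached, use highest concentration. TGI: total growth inhibition.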

How the values were obtained:
Assay in all cases: DTP human tumour cell line panel, 48 h
NCI-H23 lung = tested on: NCI-H23 lung
MDA-MB-231 breast = tested on: MDA-MB-231 breast
HS 578T breast = tested on: HS 578T breast
MOLT-4 leukemia = tested on: MOLT-4 leukemia
A498 renal = tested on: A498 renal
MDA-N = tested on: MDA-N
OVCAR-3 ovarian = tested on: OVCAR-3 ovarian
UACC-62 melanoma = tested on: UACC-62 melanoma
OVCAR-8 ovarian = tested on: OVCAR-8 ovarian
HOP-92 NSCLC = tested on: HOP-92 NSCLC
TK-10 renal = tested on: TK-10 renal
SN12C renal = tested on: SN12C renal
SNB-19 CNS = tested on: SNB-19 CNS
CAKI-1 renal = tested on: CAKI-1 renal
SK-MEL-5 melanoma = tested on: SK-MEL-5 melanoma
PC-3 prostate = tested on: PC-3 prostate
MALME-3M melanoma = tested on: MALME-3M melanoma
HCC-2998 colon = tested on: HCC-2998 colon

| Compound | TGI (NCI-H23 lung) [µM] | TGI (MDA-MB-231 breast) [µM] | TGI (HS 578T breast) [µM] | TGI (MOLT-4 leukemia) [µM] | TGI (A498 renal) [µM] | TGI (MDA-N) [µM] | TGI (OVCAR-3 ovarian) [µM] | TGI (UACC-62 melanoma) [µM] | TGI (OVCAR-8 ovarian) [µM] | TGI (HOP-92 NSCLC) [µM] | TGI (TK-10 renal) [µM] | TGI (SN12C renal) [µM] | TGI (SNB-19 CNS) [µM] | TGI (CAKI-1 renal) [µM] | TGI (SK-MEL-5 melanoma) [µM] | TGI (PC-3 prostate) [µM] | TGI (MALME-3M melanoma) [µM] | TGI (HCC-2998 colon) [µM] |
| --- | --- | --- | --- | --- | --- | --- | --- | --- | --- | --- | --- | --- | --- | --- | --- | --- | --- | --- |
| c1ccc2c(c1)nc1n2C2CCC(C2)N1 (stereo unspecified) | > 10 | > 10 | > 10 | > 10 | > 10 | > 10 | > 10 | > 10 | > 10 | > 10 | > 10 | > 10 | > 10 | > 10 | > 10 | > 10 | > 10 | > 10 |
| CC(C)(CO)NC(=O)Nc1c(C(F)(F)F)cc(-c2ccccc2)[nH]c1=O | > 100 | > 100 | > 100 | > 100 | > 100 | > 100 | > 100 | > 100 | > 100 | > 100 | > 100 | > 100 | > 100 | > 100 | > 100 | > 100 | > 100 | > 100 |
| COc1ccc(C2(O)c3ccccc3C(=O)N(C)C2(O)c2ccc(OC)cc2)cc1 (stereo unspecified) | > 100 | > 100 | 29 | > 100 | > 100 | 38.1 | > 100 | > 100 | > 100 | > 100 | > 100 | > 100 | > 100 | > 100 | > 100 | > 100 | > 100 | > 100 |
| CCSc1nc(=[N+]2CCCC2)ss1 | > 79.9 | > 100 | > 100 | 30 | > 100 | > 100 | 48.2 | 23.9 | > 100 | > 100 | > 100 | > 100 | > 100 | > 100 | 3.55 | > 100 | > 100 | > 100 |
| CC(=O)N(CN1C(=O)CCC1C(=O)O)c1cccc(O)c1 (stereo unspecified) | > 100 | > 100 | > 100 | > 100 | > 100 | > 100 | > 100 | > 100 | > 100 | > 100 | > 100 | > 100 | > 100 | > 100 | > 100 | > 100 | > 100 | > 100 |
| COC(C)(C)CCc1[nH]c2ccccc2c1CC(=O)NCCc1cncn1C | > 100 | > 100 | > 100 | > 100 | > 100 | > 100 | > 100 | > 100 | > 100 | > 100 | > 100 | > 100 | > 100 | > 100 | > 100 | > 100 | > 100 | > 100 |
| O=C1OCC/C1=C/c1ccc(N=Nc2c(O)ccc3ccccc23)cc1 | 44.8 | > 100 | 54.3 | 51.1 | 34.2 | 33.5 | 34.4 | 56.5 | 72 | 47.3 | 35.3 | 45.1 | > 100 | 34.8 | 50.8 | 49.6 | 32.3 | 39.7 |
